Positions of bridges follow the written chain, without caps; N, C: chain ends. Non-standard residues stand in square brackets, D forms with d. Residues, ends and D or L forms follow the SMILES beside them. *: point of attachment. Me3N+(CH2)2O(CH2)2O(CH2)2CO = C[N+](C)(C)CCOCCOCCC(=O)*; Phe(4-guanidino) = N=C(N)Nc1ccc(C[C@H](N)C(=O)O)cc1; Trp(7-Me) = Cc1cccc2c(C[C@H](N)C(=O)O)c[nH]c12; 2Nal = N[C@@H](Cc1ccc2ccccc2c1)C(=O)O; 3Pal = N[C@@H](Cc1cccnc1)C(=O)O; Lys(Me) = CNCCCC[C@H](N)C(=O)O; Pen = CC(C)(S)[C@H](N)C(=O)O; X49 = O=C(CCCCCCCC*)N1CCCCC1; X11 = N=C(N)NCCOCCOCCC(=O)*; X8 = C[N+](C)(C)CCCCCCCC*; Thp = NC1(C(=O)O)CCOCC1; X3 = C[N+](C)(C)CCCCC*; Me2NCH2CH2 = CN(C)CC*; Aib = CC(C)(N)C(=O)O; Sar = CNCC(=O)O

The target of data set [1] is T1, IL-23R (Homo sapiens, UniProt Q5VWK5).
T1 construct: host or cells: HEK293
T1 sequence (Q5VWK5 24-629): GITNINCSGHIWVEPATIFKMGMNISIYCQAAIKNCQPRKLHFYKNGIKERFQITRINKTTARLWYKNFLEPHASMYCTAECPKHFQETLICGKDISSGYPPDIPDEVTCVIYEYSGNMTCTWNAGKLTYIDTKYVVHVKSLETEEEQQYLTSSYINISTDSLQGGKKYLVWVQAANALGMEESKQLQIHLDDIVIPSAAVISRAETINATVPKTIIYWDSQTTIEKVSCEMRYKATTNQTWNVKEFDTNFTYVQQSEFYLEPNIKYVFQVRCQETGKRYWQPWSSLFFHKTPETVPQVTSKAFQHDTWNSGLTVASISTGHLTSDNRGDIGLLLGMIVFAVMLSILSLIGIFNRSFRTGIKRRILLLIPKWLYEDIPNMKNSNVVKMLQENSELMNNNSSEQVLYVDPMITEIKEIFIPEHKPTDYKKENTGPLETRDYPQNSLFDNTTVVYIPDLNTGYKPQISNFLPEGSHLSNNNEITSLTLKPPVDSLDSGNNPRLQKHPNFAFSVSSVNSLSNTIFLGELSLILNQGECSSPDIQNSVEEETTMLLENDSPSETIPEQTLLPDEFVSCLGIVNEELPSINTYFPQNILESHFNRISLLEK
The data set is described as follows: IL23R Reporter Assay. In kind it is cell-based. Particulars: HEK293 cells containing IL-23R, IL-12RP1 and STAT-inducible firefly luciferase reporter; 10 ng/mL IL-23 (EC90); 5 h at 37° C.; read-out: IL23R Reporter Assay. Background: In a reporter assay the amount or activity of a reporter protein is the signal.

Data set [2] can be described thus: Exposed Polar Surface Area (EPSA). Type of data set: physicochemical. Particulars: SFC on Chirex 3014 column; sample 1 mM DMSO stock; read-out: EPSA. The procedure, abridged:
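SFC retention on a Chirex 3014 (S)-valine/(R)-1-(α-naphthyl)ethylamine column, 35 °C, CO2 with MeOH (20 mM ammonium formate) gradient 5–60% at 20%/min, 14 MPa outlet. Retention times converted to EPSA (Å^2) via linear calibration with 8 standards; samples from 1 mM DMSO stock, run in duplicate.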

With `CC(=O)N(C)CCCC[C@@H]1NC(=O)[C@H](Cc2c[nH]c3c(C)cccc23)NC(=O)[C@H]([C@@H](C)O)NC(=O)[C@H](CC(=O)N(C)C)NC(=O)[C@@H](NC(=O)CCOCCOCC[N+](C)(C)C)C(C)(C)SSC(C)(C)[C@@H](C(=O)N[C@@H](Cc2ccc(OCCCCCCCCC(=O)N3CCCCC3)cc2)C(=O)N[C@@H](Cc2ccc3ccccc3c2)C(=O)NC2(C(=O)N[C@@H](CCCCN(C)C(C)=O)C(=O)N[C@@H](CC(N)=O)C(=O)N[C@@H](Cc3cccnc3)C(=O)N(C)CC(=O)N(C)C)CCOCC2)NC1=O` [compound 242, cPEG3aCO-Pen(3)-N(N(Me)2)-T-7MeW-K(NMeAc)-Pen(3)-YC8COPip-2Nal-THP-K(NMeAc)-N-3Pya-Sar-CON(Me)2] ({Me3N+(CH2)2O(CH2)2O(CH2)2CO}-[Pen]D(NMe2)T[Trp(7-Me)][Lys(Me)](Ac)[Pen]Y(X49)[2Nal][Thp][Lys(Me)](Ac)N[3Pal][Sar]-NMe2; disulfide 1-6), the IC50 in data set [1] came out at 25 nM. The EPSA in data set [2] stood at 145 A^2.

Consider `CC(=O)N(C)CCCC[C@@H]1NC(=O)[C@H](Cc2c[nH]c3c(C)cccc23)NC(=O)[C@H]([C@@H](C)O)NC(=O)[C@H](CC(=O)N(C)C)NC(=O)[C@@H](NC(=O)CCOCCOCC[N+](C)(C)C)C(C)(C)SSC(C)(C)[C@@H](C(=O)N[C@@H](Cc2ccc(NC(=N)N)cc2)C(=O)N[C@@H](Cc2ccc3ccccc3c2)C(=O)NC2(C(=O)N[C@@H](CCCCN(C)C(C)=O)C(=O)N[C@@H](CC(N)=O)C(=O)N[C@@H](Cc3cccnc3)C(=O)N(C)CC(=O)N(C)C)CCOCC2)NC1=O` [compound 304, cPEG3aCO-Pen(3)-N(N(Me)2)-T-7MeW-K(NMeAc)-Pen(3)-F(4G)-2Nal-THP-K(NMeAc)-N-3Pya-Sar-CON(Me)2] ({Me3N+(CH2)2O(CH2)2O(CH2)2CO}-[Pen]D(NMe2)T[Trp(7-Me)][Lys(Me)](Ac)[Pen][Phe(4-guanidino)][2Nal][Thp][Lys(Me)](Ac)N[3Pal][Sar]-NMe2; disulfide 1-6), for which the IC50 in data set [1] came out at 1.4 nM. Besides, the EPSA in data set [2] was 164 A^2.

`CC(=O)N(C)CCCC[C@@H]1NC(=O)[C@H](Cc2c[nH]c3c(C)cccc23)NC(=O)[C@H]([C@@H](C)O)NC(=O)[C@H](CC(=O)N(C)C)NC(=O)[C@@H](NC(=O)CCOCCOCCNC(=N)N)C(C)(C)SSC(C)(C)[C@@H](C(=O)N[C@@H](Cc2ccc(OCCCCC[N+](C)(C)C)cc2)C(=O)N[C@@H](Cc2ccc3ccccc3c2)C(=O)NC2(C(=O)N[C@@H](CCCCN(C)C(C)=O)C(=O)N[C@@H](CC(N)=O)C(=O)N[C@@H](Cc3cccnc3)C(=O)N(C)CC(=O)N(C)C)CCOCC2)NC1=O` [compound 391, cPEG3gCO-Pen(3)-N(N(Me)2)-T-7MeW-K(NMeAc)-Pen(3)-TMAPF-2Nal-THP-K(NMeAc)-N-3Pya-Sar-CON(Me)2] (X11-[Pen]D(NMe2)T[Trp(7-Me)][Lys(Me)](Ac)[Pen]Y(X3)[2Nal][Thp][Lys(Me)](Ac)N[3Pal][Sar]-NMe2; disulfide 1-6): in data set [1], the IC50 was found to be 1.5 nM. The EPSA in data set [2] is 158 A^2.

On to `CC(=O)N(C)CCCC[C@@H]1NC(=O)[C@H](Cc2c[nH]c3c(C)cccc23)NC(=O)[C@H]([C@@H](C)O)NC(=O)[C@H](CC(=O)N(C)C)NC(=O)[C@@H](NC(=O)CCOCCOCC[N+](C)(C)C)C(C)(C)SSC(C)(C)[C@@H](C(=O)N[C@@H](Cc2ccc(OCCCCC[N+](C)(C)C)cc2)C(=O)N[C@@H](Cc2ccc3ccccc3c2)C(=O)NC(C)(C)C(=O)N[C@@H](CCCCN(C)C(C)=O)C(=O)N[C@@H](CC(N)=O)C(=O)N[C@@H](Cc2cccnc2)C(=O)N(C)CC(=O)N(C)C)NC1=O` [compound 341, cPEG3aCO-Pen(3)-N(N(Me)2)-T-7MeW-K(NMeAc)-Pen(3)-TMAPF-2Nal-Aib-K(NMeAc)-N-3Pya-Sar-CON(Me)2] ({Me3N+(CH2)2O(CH2)2O(CH2)2CO}-[Pen]D(NMe2)T[Trp(7-Me)][Lys(Me)](Ac)[Pen]Y(X3)[2Nal][Aib][Lys(Me)](Ac)N[3Pal][Sar]-NMe2; disulfide 1-6), for which the IC50 in data set [1] came out at 0.97 nM. Also, in data set [2], the EPSA was 153 A^2.

Regarding `CCCCCCCCCCCC(=O)N[C@@H](CCC(=O)NCCOCCOCC(=O)NCCOCCOCC(=O)NCCOCCOCC(=O)NCCOCCOCC(=O)NCCCC[C@H](NC(=O)COCCOCCNC(=O)COCCOCCNC(=O)COCCOCCNC(=O)COCCOCCNC(=O)CC[C@H](NC(=O)CCCCCCCCCCC)C(=O)O)C(=O)NCCOCCOCC(=O)NCCOCCOCC(=O)NCCCC[C@@H](C(N)=O)N(C)C(=O)[C@H](Cc1cccnc1)NC(=O)[C@H](CC(N)=O)NC(=O)[C@H](CCCCN(C)C(C)=O)NC(=O)C1(NC(=O)[C@H](Cc2ccc3ccccc3c2)NC(=O)[C@H](Cc2ccc(OCCCCC[N+](C)(C)C)cc2)NC(=O)[C@H]2NC(=O)[C@H](CCCCNC(C)=O)NC(=O)[C@H](Cc3c[nH]c4c(C)cccc34)NC(=O)[C@H]([C@@H](C)O)NC(=O)[C@H](CC(=O)N(C)C)NC(=O)[C@@H](NC(=O)CCOCCOCC[N+](C)(C)C)C(C)(C)SSC2(C)C)CCOCC1)C(=O)O` [compound 409, cPEG3aCO-Pen(3)-N(N(Me)2)-T-7MeW-K(Ac)-Pen(3)-TMAPF-2Nal-THP-K(NMeac)-N-3Pya-NMeK(PEG2PEG2K(PEG2PEG2PEG2PEG2gEC12)2)-CONH2], the IC50 in data set [1] was determined as 47 nM. Further, the EPSA in data set [2] amounted to 198 A^2.

For the compound `CC(=O)N(C)CCCC[C@@H]1NC(=O)[C@H](Cc2c[nH]c3c(C)cccc23)NC(=O)[C@H](C)NC(=O)[C@H](CC(=O)N(C)C)NC(=O)[C@@H](NC(=O)CCOCCOCC[N+](C)(C)C)C(C)(C)SSC(C)(C)[C@@H](C(=O)N[C@@H](Cc2ccc(OCCCCC[N+](C)(C)C)cc2)C(=O)N[C@@H](Cc2ccc3ccccc3c2)C(=O)NC2(C(=O)N[C@@H](CCCCN(C)C(C)=O)C(=O)N[C@@H](CC(N)=O)C(=O)N[C@@H](Cc3cccnc3)C(=O)N(C)CC(=O)N(C)C)CCOCC2)NC1=O` [compound 494, cPEG3aCO-Pen(3)-N(N(Me)2)-A-7MeW-K(NMeAc)-Pen(3)-TMAPF-2Nal-THP-K(NMeAc)-N-3Pya-Sar-CON(Me)2] ({Me3N+(CH2)2O(CH2)2O(CH2)2CO}-[Pen]D(NMe2)A[Trp(7-Me)][Lys(Me)](Ac)[Pen]Y(X3)[2Nal][Thp][Lys(Me)](Ac)N[3Pal][Sar]-NMe2; disulfide 1-6), the IC50 in data set [1] is 12 nM. For the same compound, in data set [2], the EPSA is 133 A^2.

Consider `CC(=O)N[C@@H]1C(=O)N[C@@H](C)C(=O)N[C@@H]([C@@H](C)O)C(=O)N[C@@H](Cc2c[nH]c3c(C)cccc23)C(=O)N[C@@H](C)C(=O)N[C@H](C(=O)N[C@@H](Cc2ccc(OCCN(C)C)cc2)C(=O)N[C@@H](Cc2ccc3ccccc3c2)C(=O)NC2(C(=O)N[C@@H](C)C(=O)N[C@@H](CC(N)=O)C(=O)N[C@@H](Cc3cccnc3)C(=O)N(C)CC(=O)N(C)C)CCOCC2)C(C)(C)SSC1(C)C` [compound 121] (Ac-[Pen]AT[Trp(7-Me)]A[Pen]Y(Me2NCH2CH2)[2Nal][Thp]AN[3Pal][Sar]-NMe2; disulfide 1-6), for which the IC50 in data set [1] turned out to be 13 nM. Moreover, the EPSA in data set [2] was determined as 145 A^2.

On to `CC(=O)NCCCC[C@@H]1NC(=O)[C@H](Cc2c[nH]c3c(C)cccc23)NC(=O)[C@H]([C@@H](C)O)NC(=O)[C@H](CC(N)=O)NC(=O)[C@@H](NC(C)=O)C(C)(C)SSC(C)(C)[C@@H](C(=O)N[C@@H](Cc2ccc(OCCCCCCCC[N+](C)(C)C)cc2)C(=O)N[C@@H](Cc2ccc3ccccc3c2)C(=O)NC2(C(=O)N[C@@H](CCCCNC(C)=O)C(=O)N[C@@H](CC(N)=O)C(=O)N[C@@H](Cc3cccnc3)C(=O)N(C)CC(N)=O)CCOCC2)NC1=O` [compound 456] (Ac-[Pen]NT[Trp(7-Me)]K(Ac)[Pen]Y(X8)[2Nal][Thp]K(Ac)N[3Pal][Sar]-NH2; disulfide 1-6 (inferred)), for which, in data set [1], the IC50 stood at 1.5 nM. Besides, in data set [2], the EPSA came out at 156 A^2.

Values taken from US20260022143A1, “Cyclic Peptide Inhibitors of IL-23” (JANSSEN PHARMACEUTICA NV, priority 2022, published 2026).
